Common to all, as to assay type: biochemical
One experiment deals with CDK6/Cyclin D3 (Homo sapiens (Human), UniProt Q00534). Briefly: Kinase activity assay (Caliper Mobility Shift Assay), CDK6/Cyclin D3. On the procedure: (§1) The inhibitory effect of compounds against the kinase CDK4/cyclin D3 was detected by Caliper Mobility Shift Assay method. The final concentration of the compounds to be tested was set at 10 concentrations starting from 1 uM by 3-fold serial dilution. 5 μL of compounds at 5-fold final concentration and 10 μL of CDK4/cyclin D3 kinase solution at a final concentration of 10 nM was added to a 384-well reaction plate, respectively. The plate was pre-incubated for 10 min at room temperature (with negative control wells containing 10 uL of kinase buffer and 5 uL of 5% DMSO; positive control wells containing 10 μL of kinase solution and 5 uL of 5% DMSO). The reaction was initiated by adding 10 μL of ATP at a final concentration of 250 uM and the corresponding substrate peptide mixture at room temperature for 150 minutes. 30 uL of stop detection solution containing EDTA was added to stop the kinase reaction. Caliper EZ Reader was used to read the conversion rate. Conversion inhibition rate %=(average conversion rate of positive control %−conversion rate of sample %)/(average conversion rate of positive control %−average conversion rate of negative control %). wherein: negative control wells represent the conversion rate readings of wells without enzymatic activity; positive control wells represent conversion readings for wells with no compound inhibition. The log(inhibitor) vs. response—Variable slope of the analysis software GraphPad Prism 5 was used with log concentration value as the X-axis and the percent inhibition rate as the Y-axis to fit the dose-response curve, the IC50 value of each compound on the enzyme activity was thus obtained. Calculation formula: Y=Bottom+(Top−Bottom)/(1+10^((Log IC50−X)*HillSlope)).
Sequence of CDK6/Cyclin D3 (Q00534 whole entry, species assumed): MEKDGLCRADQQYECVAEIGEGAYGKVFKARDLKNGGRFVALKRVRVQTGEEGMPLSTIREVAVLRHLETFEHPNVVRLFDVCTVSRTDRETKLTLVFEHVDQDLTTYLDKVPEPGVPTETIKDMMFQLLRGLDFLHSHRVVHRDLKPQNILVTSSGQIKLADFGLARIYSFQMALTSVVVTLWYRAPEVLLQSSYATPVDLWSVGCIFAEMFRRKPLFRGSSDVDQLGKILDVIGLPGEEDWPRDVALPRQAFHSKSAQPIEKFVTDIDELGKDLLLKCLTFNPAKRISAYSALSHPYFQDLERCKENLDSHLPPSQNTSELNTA
Sequence of CDK6/Cyclin D3 (P30281 whole entry partner, species assumed): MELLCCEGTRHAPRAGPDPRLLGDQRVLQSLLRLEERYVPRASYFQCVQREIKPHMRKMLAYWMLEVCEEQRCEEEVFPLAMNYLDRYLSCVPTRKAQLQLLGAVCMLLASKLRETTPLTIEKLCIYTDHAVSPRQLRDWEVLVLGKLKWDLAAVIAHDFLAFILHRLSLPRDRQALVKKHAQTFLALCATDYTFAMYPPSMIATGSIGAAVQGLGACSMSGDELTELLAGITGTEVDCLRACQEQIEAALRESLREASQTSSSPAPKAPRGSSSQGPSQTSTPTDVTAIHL
(§2) The IC50 values and inhibitory activities of compounds of the present disclosure on CDK6/Cyclin D3, CDK2/Cyclin A2, and CDK9/cyclin T1 were tested in a similar manner.

In the next experiment the target is CDK2/Cyclin A2 (Homo sapiens (Human), UniProt P24941). The experiment can be described thus: Kinase activity assay (Caliper Mobility Shift Assay), CDK2/Cyclin A2. The method, then: as §1, §2
For another experiment, the target named is CDK4/cyclin D3 (Homo sapiens (Human), UniProt P11802). The experiment can be described thus: Kinase activity assay (Caliper Mobility Shift Assay), CDK4/cyclin D3. Conditions: 10 nM kinase, 250 uM ATP. On the procedure:
as §1

Some results are limits rather than exact numbers.

Results on 25 compounds are retold here after patent publication US20230416271A1, “HETEROARYLQUINAZOLINE COMPOUNDS AS PROTEIN KINASE INHIBITORS” (CHENGDU CYNOGEN BIO-PHARMACEUTICAL TECHNOLOGY CO., LTD., priority 2020, published 2023).

Sequence of CDK4/cyclin D3 (P11802 whole entry, species assumed): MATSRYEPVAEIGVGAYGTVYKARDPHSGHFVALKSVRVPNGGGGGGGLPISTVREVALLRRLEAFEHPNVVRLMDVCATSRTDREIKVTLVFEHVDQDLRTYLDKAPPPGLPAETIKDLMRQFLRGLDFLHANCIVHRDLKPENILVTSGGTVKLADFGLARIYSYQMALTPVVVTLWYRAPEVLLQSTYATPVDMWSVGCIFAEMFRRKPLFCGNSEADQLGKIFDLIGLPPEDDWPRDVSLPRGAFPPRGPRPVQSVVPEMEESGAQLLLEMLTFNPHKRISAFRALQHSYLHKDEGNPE
Sequence of CDK4/cyclin D3 (P30281 whole entry partner, species assumed): as the sequence (P30281 whole entry partner, species assumed) above

For the compound `CC(C)c1noc2ccc3cnc(N[C@H]4CC[C@H](Nc5ncccn5)CC4)nc3c12` [I.3, (1R,4R)-N^1-(9-isopropylisoxazolo[5,4-h]quinazolin-2-yl)-N^4-(pyrimidin-2-yl)cyclohexane-1,4-diamine], the results for the IC50 at CDK6/Cyclin D3, on CDK2/Cyclin A2 and at CDK4/cyclin D3 were 38 nM, 258 nM and 26 nM, respectively.
`CC(C)c1noc2ccc3cnc(NC4CCNCC4)nc3c12` [I.4, 9-isopropyl-N-(piperidin-4-yl)isoxazolo[5,4-h]quinazolin-2-amine]: the IC50 is 68 nM at CDK6/Cyclin D3, 249 nM on CDK2/Cyclin A2 and 47 nM on CDK4/cyclin D3.
In the case of `CC(C)c1noc2ccc3cnc(NC4CCN(S(C)(=O)=O)CC4)nc3c12` [I.5, 9-isopropyl-N-(1-(methylsulfonyl)piperidin-4-yl)isoxazolo[5,4-h]quinazolin-2-amine], the IC50 was 24 nM on CDK6/Cyclin D3, 1 nM on CDK2/Cyclin A2 and 10 nM at CDK4/cyclin D3.
Take `CC(C)c1noc2c(F)cc3cnc(NC4CCN(S(C)(=O)=O)CC4)nc3c12` [I.6, 6-fluoro-9-isopropyl-N-(1-(methylsulfonyl)piperidin-4-yl)isoxazolo[5,4-h]quinazolin-2-amine]: the half-inhibitory concentration (IC50) on CDK6/Cyclin D3 was found to be 12 nM; on CDK2/Cyclin A2, 1 nM; at CDK4/cyclin D3, 5 nM.
For `CC(C)c1noc2c(Cl)cc3cnc(NC4CCN(S(C)(=O)=O)CC4)nc3c12` [I.7, 6-chloro-9-isopropyl-N-(1-(methylsulfonyl)piperidin-4-yl)isoxazolo[5,4-h]quinazolin-2-amine] the same measures were 3 nM, 8 nM and 7 nM.
In the case of `CC(C)c1noc2c(Br)cc3cnc(NC4CCN(S(C)(=O)=O)CC4)nc3c12` [I.8, 6-bromo-9-isopropyl-N-(1-(methylsulfonyl)piperidin-4-yl)isoxazolo[5,4-h]quinazolin-2-amine], the figures for the IC50 on CDK6/Cyclin D3, on CDK2/Cyclin A2 and on CDK4/cyclin D3 were 3 nM, 9 nM and 6 nM, respectively.
For `CC(C)c1noc2c(C(F)F)cc3cnc(NC4CCN(S(C)(=O)=O)CC4)nc3c12` [I.9, 6-(difluoromethyl)-9-isopropyl-N-(1-(methylsulfonyl)piperidin-4-yl)isoxazolo[5,4-h]quinazolin-2-amine] the same measures were 7 nM, 5 nM and 6 nM.
For `CC(C)c1noc2c(CO)cc3cnc(NC4CCN(S(C)(=O)=O)CC4)nc3c12` [I.10, (9-isopropyl-2-((1-(methylsulfonyl)piperidin-4-yl)amino)isoxazolo[5,4-h]quinazolin-6-yl)methanol], the IC50 at CDK6/Cyclin D3 stood at 71 nM; at CDK2/Cyclin A2, 49 nM; on CDK4/cyclin D3, 72 nM.
Take `[2H]c1cc2cnc(NC3CCN(S(C)(=O)=O)CC3)nc2c2c(C(C)C)noc12` [I.11, 9-isopropyl-N-(1-(methylsulfonyl)piperidin-4-yl)isoxazolo[5,4-h]quinazolin-6-d-2-amine]: the IC50 came to 24 nM on CDK6/Cyclin D3, 1 nM at CDK2/Cyclin A2 and 10 nM at CDK4/cyclin D3.
For `Cc1cc2cnc(NC3CCN(S(C)(=O)=O)CC3)nc2c2c(C(C)C)noc12` [I.12, 9-isopropyl-6-methyl-N-(1-(methylsulfonyl)piperidin-4-yl)isoxazolo[5,4-h]quinazolin-2-amine] the same measures were 13 nM, 1 nM and 5 nM.
On to `C[C@@]1(O)CCC[C@H]1c1noc2ccc3cnc(NC4CCN(S(C)(=O)=O)CC4)nc3c12` [I.13, (1R,2S)-1-methyl-2-(2-((1-(methylsulfonyl)piperidin-4-yl)amino)isoxazolo[5,4-h]quinazolin-9-yl)cyclopentan-1-ol], for which the IC50 on CDK6/Cyclin D3 was found to be 6 nM; on CDK2/Cyclin A2, 1 nM; on CDK4/cyclin D3, 3 nM.
`C[C@@]1(O)CCC[C@H]1c1noc2c(C(F)F)cc3cnc(NC4CCN(S(C)(=O)=O)CC4)nc3c12` [I.14, (1R,2S)-2-(6-(difluoromethyl)-2-((1-(methylsulfonyl)piperidin-4-yl)amino)isoxazolo[5,4-h]quinazolin-9-yl)-1-methylcyclopentan-1-ol]: the results for the IC50 on CDK6/Cyclin D3, at CDK2/Cyclin A2 and on CDK4/cyclin D3 were 8 nM, 2 nM and 5 nM, respectively.
Turning to `CC(C)c1noc2c1-c1nc(NC3CCN(S(C)(=O)=O)CC3)ncc1CC2` [I.15, 9-isopropyl-N-(1-(methylsulfonyl)piperidin-4-yl)-5,6-dihydroisoxazolo[5,4-h]quinazolin-2-amine], the half-inhibitory concentration (IC50) came to 8 nM at CDK6/Cyclin D3, 2 nM on CDK2/Cyclin A2 and 10 nM at CDK4/cyclin D3.
On to `CC(C)n1nnc2ccc3cnc(N[C@H]4CC[C@H](N)CC4)nc3c21` [II.1, (1R,4R)-N1-(1-isopropyl-1H-[1,2,3]triazolo[4,5-h]quinazolin-8-yl)cyclohexane-1,4-diamine], for which the IC50 on CDK6/Cyclin D3, on CDK2/Cyclin A2 and at CDK4/cyclin D3 was above 500 nM each time.
With `CC(C)n1nnc2ccc3cnc(N[C@H]4CC[C@H](NC5CCNCC5)CC4)nc3c21` [II.3, (1R,4R)-N^1-(1-isopropyl-1H-[1,2,3]triazolo[4,5-h]quinazolin-8-yl)-N^4-(piperidin-4-yl)cyclohexane-1,4-diamine], the half-maximal inhibitory concentration (IC50) came out at 26 nM on CDK6/Cyclin D3, 12 nM at CDK2/Cyclin A2 and 22 nM on CDK4/cyclin D3.
In the case of `COCCN[C@H]1CC[C@H](Nc2ncc3ccc4nnn(C(C)C)c4c3n2)CC1` [II.4, (1R,4R)-N^1-(1-isopropyl-1H-[1,2,3]triazolo[4,5-h]quinazolin-8-yl)-N^4-(2-methoxyethyl)cyclohexane-1,4-diamine], the IC50 was found to be 22 nM at CDK6/Cyclin D3, 20 nM at CDK2/Cyclin A2 and 16 nM on CDK4/cyclin D3.
Take `CC(C)n1nnc2ccc3cnc(N[C@H]4CC[C@H](Nc5ncccn5)CC4)nc3c21` [II.5, (1R,4R)-N^1-(1-isopropyl-1H-[1,2,3]triazolo[4,5-h]quinazolin-8-yl)-N^4-(pyrimidin-2-yl)cyclohexane-1,4-diamine]: the IC50 turned out to be 34 nM at CDK6/Cyclin D3, 140 nM on CDK2/Cyclin A2 and 22 nM at CDK4/cyclin D3.
Take `CC(C)n1nnc2ccc3cnc(N[C@H]4CC[C@H](N(C)C)CC4)nc3c21` [II.6, (1R,4R)-N^1-(1-isopropyl-1H-[1,2,3]triazolo[4,5-h]quinazolin-8-yl)-N^4,N^4-dimethylcyclohexane-1,4-diamine]: the 50% inhibitory concentration (IC50) on CDK6/Cyclin D3 worked out at 12 nM; at CDK2/Cyclin A2, 35 nM; on CDK4/cyclin D3 it was 10 nM.
As to `CC(C)n1nnc2ccc3cnc(N[C@H]4CC[C@H](N5CCN(C6CCCC6)CC5)CC4)nc3c21` [II.7, N-((1R,4R)-4-(4-cyclopentylpiperazin-1-yl)cyclohexyl)-1-isopropyl-1H-[1,2,3]triazolo[4,5-h]quinazolin-8-amine], the IC50 on CDK6/Cyclin D3 amounted to 26 nM; on CDK2/Cyclin A2, 465 nM; on CDK4/cyclin D3, 40 nM.
`CC(C)n1nnc2ccc3cnc(N[C@H]4CC[C@H](N5CCN(C(=O)C6CC6)CC5)CC4)nc3c21` [II.9, Cyclopropyl(4-((1R,4R)-4-((1-isopropyl-1H-[1,2,3]triazolo [4,5-h]quinazolin-8-yl)amino)cyclohexyl)piperazin-1-yl) ketone]: the results for the IC50 at CDK6/Cyclin D3, on CDK2/Cyclin A2 and at CDK4/cyclin D3 were 35 nM, 356 nM and 26 nM, respectively.
Consider `CC(C)n1nnc2ccc3cnc(N[C@H]4CC[C@H](N5CCN(C(=O)c6ccccc6)CC5)CC4)nc3c21` [II.10, (4-((1R,4R)-4-((1-isopropyl-1H-[1,2,3]triazolo[4,5-h]quinazolin-8-yl)amino)cyclohexyl)piperazin-1-yl)(phenyl) ketone], for which the 50% inhibitory concentration (IC50) worked out at 46 nM at CDK6/Cyclin D3, 336 nM on CDK2/Cyclin A2 and 22 nM at CDK4/cyclin D3.
As to `CC(C)n1nnc2ccc3cnc(NC4CCC(NS(C)(=O)=O)CC4)nc3c21` (stereo not drawn) [II.11, N-(4-((1-isopropyl-1H-[1,2,3]triazolo[4,5-h]quinazolin-8-yl)amino)cyclohexyl)methanesulfonamide], the results for the IC50 on CDK6/Cyclin D3, at CDK2/Cyclin A2 and at CDK4/cyclin D3 were 15 nM, 1 nM and 8 nM, respectively.
With `CC(C)n1nnc2ccc3cnc(NC4CCNCC4)nc3c21` [II.12, 1-isopropyl-N-(piperidin-4-yl)-1H-[1,2,3]triazolo[4,5-h] quinazolin-8-amine], the values for the IC50 at CDK6/Cyclin D3, on CDK2/Cyclin A2 and on CDK4/cyclin D3 were 89 nM, 151 nM and 51 nM, respectively.
As to `CC(C)n1nnc2ccc3cnc(NC4CCN(C)CC4)nc3c21` [II.13, 1-isopropyl-N-(1-methylpiperidin-4-yl)-1H-[1,2,3]triazolo [4,5-h]quinazolin-8-amine], the IC50 on CDK6/Cyclin D3 is 90 nM; at CDK2/Cyclin A2, 110 nM; on CDK4/cyclin D3, 41 nM.
Consider `CC(C)n1nnc2ccc3cnc(NC4CCN(S(C)(=O)=O)CC4)nc3c21` [II.14, 1-isopropyl-N-(1-(methylsulfonyl)piperidin-4-yl)-1H-[1,2,3] triazolo[4,5-h]quinazolin-8-amine], for which the half-inhibitory concentration (IC50) on CDK6/Cyclin D3 was 5 nM; at CDK2/Cyclin A2 it was 0.2 nM; at CDK4/cyclin D3, 3 nM.
